Holding throughout (format): cell-based, Human
Assay [1] deals with H1581 (FGFR1 amp). The experiment in a line: In vitro growth inhibition of H1581 tumor cells (MTT/CCK8). To be noted: Homo sapiens, NCI-H1581; in vitro growth inhibition (or induction of apoptosis), cells cultured 3 to 5 days, MTT (CCK8); read-out: IC50 H1581 (FGFR1 amp).
Assay [2] has as its system KCL-22 (BCR-ABL). As to the kind of experiment: In vitro growth inhibition of KCL-22 tumor cells (MTT/CCK8). To be noted: Homo sapiens, KCL-22; in vitro growth inhibition (or induction of apoptosis), cells cultured 3 to 5 days, MTT (CCK8); read-out: IC50 KCL-22 (BCR-ABL).
Assay [3] relates to Karpas 299 (NPM-ALK). As to the kind of experiment: In vitro growth inhibition of Karpas 299 tumor cells (MTT/CCK8). To be noted: Homo sapiens, KARPAS-299; in vitro growth inhibition (or induction of apoptosis), cells cultured 3 to 5 days, MTT (CCK8); read-out: IC50 Karpas 299 (NPM-ALK).
In assay [4] the test system is Hep3B2 (FGFR3/4+++). As to the kind of experiment: In vitro growth inhibition of Hep3B2 tumor cells (MTT/CCK8). The settings on record: Homo sapiens, Hep3B; in vitro growth inhibition (or induction of apoptosis), cells cultured 3 to 5 days, MTT (CCK8); read-out: IC50 Hep3B2 (FGFR3/4+++).
Assay [5] concerns KATO III (FGFR2 amp). As to the kind of experiment: In vitro growth inhibition of KATO III tumor cells (MTT/CCK8). To be noted: Homo sapiens, KATO III; in vitro growth inhibition (or induction of apoptosis), cells cultured 3 to 5 days, MTT (CCK8); read-out: IC50 KATO III (FGFR2 amp).
The subject of assay [6] is H1703 (PDGFRa amp). As to the kind of experiment: In vitro growth inhibition of H1703 tumor cells (MTT/CCK8). The settings on record: Homo sapiens, NCI-H1703; in vitro growth inhibition (or induction of apoptosis), cells cultured 3 to 5 days, MTT (CCK8); read-out: IC50 H1703 (PDGFRa amp).
The subject of assay [7] is MOLM-13 (FLT3-ITD). As to the kind of experiment: In vitro growth inhibition of MOLM-13 tumor cells (MTT/CCK8). The settings on record: Homo sapiens, MOLM-13; in vitro growth inhibition (or induction of apoptosis), cells cultured 3 to 5 days, MTT (CCK8); read-out: IC50 MOLM-13 (FLT3-ITD).
The test system of assay [8] is Kasumi-1 (KIT N822K). The experiment in a line: In vitro growth inhibition of Kasumi-1 tumor cells (MTT/CCK8). The settings on record: Homo sapiens, Kasumi 1; in vitro growth inhibition (or induction of apoptosis), cells cultured 3 to 5 days, MTT (CCK8); read-out: IC50 Kasumi-1 (KIT N822K).

Consider `COc1cc2nccc(Nc3ccc(NC(=O)Nc4cc(C(C)(C)C)on4)cc3Cl)c2cc1C(N)=O` [Compound 100, 4-{4-[3-(5-tert-butyl-isoxazol-3-yl)-ureido]-2-chloro-phenylamino}-7-methoxy-quinolin-6-carboxamide], for which the IC50 is 271 nM in assay [1]; 694 nM in assay [2]; 838 nM in assay [3]; above 1000 nM in assay [4]; 49.7 nM in assay [5]; 202 nM in assay [6]. Moreover, the IC50 was 1.01 nM in assay [7] and above 1000 nM in assay [8].
With `COc1cc2nccc(Oc3ccc(NC(=O)Nc4cc(C(C)(C)C)n[nH]4)cc3Cl)c2cc1NC(C)=O` [Compound 101, N-(4-{4-[3-(5-tert-butyl-2H-pyrazol-3-yl)-ureido]-2-chloro-phenoxy}-7-methoxy-quinolin-6-yl)-acetamide], the IC50 in assay [1] is 9.56 nM; in assay [2], 11 nM; in assay [3], 64.3 nM; in assay [4] it was 110 nM; in assay [5], 2.34 nM; in assay [6] it was 61.3 nM. The IC50 in assay [7] was determined as 0.08 nM; in assay [8] it was 24.1 nM.
Take `COc1cc2nccc(Oc3ccc(NC(=O)Nc4cc(C(C)(C)C)n[nH]4)cc3C)c2cc1NC(C)=O` [Compound 103, N-(4-{4-[3-(5-tert-butyl-2H-pyrazol-3-yl)-ureido]-2-methyl-phenoxy}-7-methoxy-quinolin-6-yl)-acetamide]: the IC50 in assay [1] amounted to 24.2 nM; in assay [2], 12.1 nM; in assay [3], 350 nM; in assay [4], 191 nM; in assay [5] it was 4.17 nM; in assay [6], 86.7 nM. The values for the IC50 in assay [7] and in assay [8] were 0.15 nM and 14.6 nM, respectively.
`COc1cc2nccc(Oc3ccc(NC(=O)Nc4cc(C(C)(C)C)n[nH]4)cn3)c2cc1NC(C)=O` [Compound 104, N-(4-{5-[3-(5-tert-butyl-2H-pyrazol-3-yl)-ureido]-pyridin-2-yloxy}-7-methoxy-quinolin-6-yl)-acetamide]: the IC50 is 160 nM in assay [1]; above 1000 nM in assay [2]; 768 nM in assay [3]; 526 nM in assay [4]; 40.1 nM in assay [5]; 163 nM in assay [6]. Besides, the IC50 was 1.17 nM in assay [7] and above 1000 nM in assay [8].
In the case of `C=CC(=O)Nc1cc2c(Oc3ccc(NC(=O)Nc4cc(C(C)(C)C)n[nH]4)cc3Cl)ccnc2cc1OC` [Compound 105, N-(4-{4-[3-(5-tert-butyl-2H-pyrazol-3-yl)-ureido]-2-chloro-phenoxy}-7-methoxy-quinolin-6-yl)-acrylamide], the IC50 is 39.6 nM in assay [1]; 45.3 nM in assay [2]; 187 nM in assay [3]; 83.4 nM in assay [4]; 4.07 nM in assay [5]; 71.9 nM in assay [6]. The results for the IC50 in assay [7] and in assay [8] were 0.59 nM and 57.3 nM, respectively.
With `CCc1cc(NC(=O)Nc2cc(C(C)(C)C)n[nH]2)ccc1Oc1ccnc2cc(OC)c(C(N)=O)cc12` [Compound 106, 4-{4-[3-(5-tert-butyl-2H-pyrazol-3-yl)-ureido]-2-ethyl-phenoxy}-7-methoxy-quinolin-6-carboxamide], the IC50 in assay [1] is 168 nM; in assay [2] it was 115 nM; in assay [3] it was 380 nM; in assay [4], above 1000 nM; in assay [5], 46.7 nM; in assay [6] it was 120 nM. Also, the IC50 turned out to be 9.37 nM in assay [7] and 176 nM in assay [8].
Take `COc1cc2nccc(Oc3ccc(NC(=O)Nc4cc(C(C)(C)C)n[nH]4)cc3C(C)C)c2cc1C(N)=O` [Compound 107, 4-{4-[3-(5-tert-butyl-2H-pyrazol-3-yl)-ureido]-2-isopropyl-phenoxy}-7-methoxy-quinolin-6-carboxamide]: the IC50 in assay [1] is 341 nM; in assay [2], 589 nM; in assay [3], 759 nM; in assay [4], above 1000 nM; in assay [5], 345 nM; in assay [6] it was 263 nM. In addition, the IC50 in assay [7] is 50.4 nM; in assay [8] it was above 1000 nM.
Take `COc1cc2nccc(Oc3ccc(NC(=O)Nc4cc(C(C)(C)C)n[nH]4)c(C)c3C)c2cc1C(N)=O` [Compound 109, 4-{4-[3-(5-tert-butyl-2H-pyrazol-3-yl)-ureido]-2,3-dimethyl-phenoxy}-7-methoxy-quinolin-6-carboxamide]: the IC50 in assay [1] worked out at 17.7 nM; in assay [2] it was 2.48 nM; in assay [3], 559 nM; in assay [4], 98.7 nM; in assay [5] it was 1.55 nM; in assay [6], 108 nM. The results for the IC50 in assay [7] and in assay [8] were 18.7 nM and 0.471 nM, respectively.
Regarding `COc1cc2nccc(Oc3ccc(NC(=O)Nc4cc(C(C)(C)C)nn4C)c(C)c3C)c2cc1C(N)=O` [Compound 110, 4-{4-[3-(5-tert-butyl-2-methyl-2H-pyrazol-3-yl)-ureido]-2,3-dimethyl-phenoxy}-7-methoxy-quinolin-6-carboxamide], the IC50 in assay [1] turned out to be 8.36 nM; in assay [2], 3.21 nM; in assay [3] it was 508 nM; in assay [4] it was 83.8 nM; in assay [5], 2.98 nM; in assay [6], 46.1 nM. In addition, the IC50 in assay [7] amounted to 19.7 nM; in assay [8] it was 0.41 nM.
On to `CC(C)(C)c1cc(NC(=O)Nc2ccc(Oc3ccnc4c(F)cccc34)cc2Cl)no1` [Compound 113, 1-(5-tert-butyl-isoxazol-3-yl)-3-[2-chloro-4-(8-fluoro-quinolin-4-yloxy)-phenyl]-urea], for which the IC50 in assay [1] was above 1000 nM; in assay [2] it was above 1000 nM; in assay [3] it was above 1000 nM; in assay [4], above 1000 nM; in assay [5] it was 498 nM; in assay [6], 568 nM. The IC50 is above 500 nM in assay [7] and above 1000 nM in assay [8].
Regarding `CC(C)(C)c1cc(NC(=O)Nc2ccc(Oc3ccnc4c(C(F)(F)F)cccc34)cc2Cl)no1` [Compound 114, 1-(5-tert-butyl-isoxazol-3-yl)-3-[2-chloro-4-(8-trifluoromethyl-quinolin-4-yloxy)-phenyl]-urea], the IC50 was above 1000 nM in assay [1]; above 5000 nM in assay [2]; above 1000 nM in assay [3]; above 1000 nM in assay [4]; above 1000 nM in assay [5]; above 1000 nM in assay [6]. Moreover, the IC50 in assay [7] and in assay [8] was above 1000 nM throughout.
In the case of `CC(C)(C)c1cc(NC(=O)Nc2ccc(Oc3cc(C(F)(F)F)nc4ccccc34)cc2Cl)no1` [Compound 115, 1-(5-tert-butyl-isoxazol-3-yl)-3-[2-chloro-4-(2-trifluoromethyl-quinolin-4-yloxy)-phenyl]-urea], the IC50 in assay [1] is above 1000 nM; in assay [2], above 5000 nM; in assay [3] it was above 1000 nM; in assay [4], above 1000 nM; in assay [5], 746 nM; in assay [6], above 1000 nM. Besides, the IC50 in assay [7] and in assay [8] was above 1000 nM in each case.

The record behind these values is patent US10800741B2 (ANCUREALL PHARMACEUTICAL (SHANGHAI) CO., LTD., priority 2017, dated 2020).
